Assay results taken from patent US20260207623A1, “USE OF ESTETROL IN HEPATICALLY IMPAIRED PATIENTS” (ESTETRA SRL, priority 2022, published 2026).

How the values were obtained:
[1] = Phase 1 pharmacokinetic study of a single oral dose of 20 mg E4 monohydrate in female subjects with normal hepatic function and mild, moderate or severe hepatic impairment (plasma, LC-MS/MS, non-compartmental analysis); type: in vivo, human; conditions: for AUC0-24 h, GM / AUC0-24 h, Mean / AUC0-24 h, Median / AUCinf, GM / AUCinf, Mean / AUCinf, Median / AUClast, GM / AUClast, Mean / AUClast, Median / Cmax, GM / Cmax, Mean / Cmax, Median / T1/2, GM / T1/2, Mean / T1/2, Median / Tmax, Median / λz, GM / λz, Mean / λz, Median: single oral dose 20 mg E4 monohydrate, plasma
Method: This was a Phase 1, multi-centre, open-label, PK, and safety study of a single oral dose of 20 mg E4 monohydrate in female subjects with normal hepatic function (Group 1), mild hepatic impairment (Group 2), moderate hepatic impairment (Group 3), and severe hepatic impairment (Group 4), as defined using the Child-Pugh classification at Screening.
The study consisted of an eligibility Screening period (within 28 days prior to study drug administration), an Assessment Period with in-house period and outpatient visits (including a single oral dose of 20 mg E4 on Day 1), and a follow up visit. All subjects were confined to the study site from Day-1 (the day before dosing) until Day 4 and returned to the site every day from Day 5 to Day 9. Alternatively, the subjects could stay for a prolonged in-house period in agreement with the Investigator. The follow-up visit occurred on Day 14 (+2 days).
All subjects arrived at the study site in the morning of Day-1 in a fasted state (no food for at least 8 h, water was allowed) to have the scheduled assessments performed in order to confirm eligibility as outlined in the inclusion and exclusion criteria (Section 2.3.1 and Section 2.3.2, respectively). In the morning of Day 1 following an overnight fast, the subjects received oral dosing of 20 mg E4 monohydrate and remained at the site. Study-related assessments were performed at time points indicated in the Schedule of Assessments in Table 2.
Serial blood sampling for PK assessments started on Day 1 and proceeded until Day 9 according to the Pharmacokinetic Sampling Schedule presented in Table 3.
Each enrolled subject was to receive a single oral dose of 20 mg of E4 (estetrol) as monohydrate as a film-coated tablet.
Study drug was administered to subjects in the morning after an overnight fast of at least 8 h.
Calculation of non-compartmental PK parameters were done using WinNonlin™ Professional, Version 6.3 or higher.
The primary PK parameters to be analyzed for E4 in plasma: • Cmax=maximum observed plasma concentration • AUCinf=area under the concentration-time curve (AUC) from time zero extrapolated to infinity
The analysis of E4 and the metabolites E4-3-glucuronide and E4-16-glucuronide in plasma samples were performed at the Bioanalytical Laboratory of the CRO using a validated liquid chromatography-mass spectrometry/mass spectrometry method.
Individual and mean plasma concentrations at each sampling time point for E4 are presented by listings and descriptive summary statistics including means, geometric means (GMs), medians, ranges, standard deviations (SD) and coefficients of variation (CV). Individual, mean and/or median concentrations per hepatic function group were plotted versus time on semilogarithmic scales.
PK parameters were calculated by non-compartmental analysis. PK parameters were analysed using descriptive statistics and are presented by hepatic function group.
Analysis of variance (ANOVA) were used to compare primary PK parameters of E4 (Cmax and AUCinf) between subjects with hepatic impairment and subjects with normal hepatic function in an exploratory approach, using the log-transformed value of each PK parameter as dependent variable, and the hepatic impairment group (normal, mild, moderate, and severe) as a fixed classification factor. Geometric least squares means were used to calculate the ratios of primary PK parameters for each hepatic impairment group to those in the control group, along with 90% confidence intervals (CIs).
Additionally, the impact of age and BMI on the effect of hepatic impairment were evaluated using an ANOVA model similar as the ANOVA model described above, but with the interaction between each factor and the hepatic impairment group included as an additional factor.
The relationship between log-transformed PK parameters (Cmax and AUCinf) and continuous parameters (albumin, total bilirubin, and prothrombin time) used for the Child-Pugh score was explored by a linear regression approach. […]

post-menopausal women = experiment: Example 3: menopause-specific Quality of Life (MENQOL) questionnaire; type: in vivo, human

CC12CCC3c4ccc(O)cc4CCC3C1C(O)C(OC1OC(C(=O)O)C(O)C(O)C1O)C2O (stereo not drawn) [E4-16-glucuronide]
AUC0-24 h, GM ([1]; Mild hepatic impairment): 1017.08 ng·h/mL | AUC0-24 h, Mean ([1]; Mild hepatic impairment): 1038.91 ng·h/mL | AUC0-24 h, Median ([1]; Mild hepatic impairment): 1061.93 ng·h/mL | AUCinf, GM ([1]; Mild hepatic impairment): 1380.13 ng·h/mL | AUCinf, Mean ([1]; Mild hepatic impairment): 1389.24 ng·h/mL | AUCinf, Median ([1]; Mild hepatic impairment): 1358.39 ng·h/mL | AUClast, GM ([1]; Mild hepatic impairment): 1350.15 ng·h/mL | AUClast, Mean ([1]; Mild hepatic impairment): 1364.27 ng·h/mL | AUClast, Median ([1]; Mild hepatic impairment): 1329.47 ng·h/mL | Cmax, GM ([1]; Mild hepatic impairment): 711.100 ng/mL | Cmax, Mean ([1]; Mild hepatic impairment): 745.750 ng/mL | Cmax, Median ([1]; Mild hepatic impairment): 712.500 ng/mL | T1/2, GM ([1]; Mild hepatic impairment): 24.080 h | T1/2, Mean ([1]; Mild hepatic impairment): 24.634 h | T1/2, Median ([1]; Mild hepatic impairment): 25.699 h | Tmax, Median ([1]; Mild hepatic impairment): 0.490 h | λz, GM ([1]; Mild hepatic impairment): 0.0300 h⁻¹ | λz, Mean ([1]; Mild hepatic impairment): 0.0295 h⁻¹ | λz, Median ([1]; Mild hepatic impairment): 0.0270 h⁻¹ | AUC0-24 h, GM ([1]; Moderate hepatic impairment): 1244.09 ng·h/mL | AUC0-24 h, Mean ([1]; Moderate hepatic impairment): 1293.40 ng·h/mL | AUC0-24 h, Median ([1]; Moderate hepatic impairment): 1323.09 ng·h/mL | AUCinf, GM ([1]; Moderate hepatic impairment): 1459.97 ng·h/mL | AUCinf, Mean ([1]; Moderate hepatic impairment): 1518.70 ng·h/mL | AUCinf, Median ([1]; Moderate hepatic impairment): 1534.85 ng·h/mL | AUClast, GM ([1]; Moderate hepatic impairment): 1375.56 ng·h/mL | AUClast, Mean ([1]; Moderate hepatic impairment): 1435.97 ng·h/mL | AUClast, Median ([1]; Moderate hepatic impairment): 1459.15 ng·h/mL | Cmax, GM ([1]; Moderate hepatic impairment): 734.210 ng/mL | Cmax, Mean ([1]; Moderate hepatic impairment): 785.625 ng/mL | Cmax, Median ([1]; Moderate hepatic impairment): 759.500 ng/mL | T1/2, GM ([1]; Moderate hepatic impairment): 13.050 h | T1/2, Mean ([1]; Moderate hepatic impairment): 14.217 h | T1/2, Median ([1]; Moderate hepatic impairment): 12.381 h | Tmax, Median ([1]; Moderate hepatic impairment): 0.985 h | λz, GM ([1]; Moderate hepatic impairment): 0.0500 h⁻¹ | λz, Mean ([1]; Moderate hepatic impairment): 0.0580 h⁻¹ | λz, Median ([1]; Moderate hepatic impairment): 0.0560 h⁻¹ | AUC0-24 h, GM ([1]; Normal hepatic function): 643.44 ng·h/mL | AUC0-24 h, Mean ([1]; Normal hepatic function): 676.36 ng·h/mL | AUC0-24 h, Median ([1]; Normal hepatic function): 613.15 ng·h/mL | AUCinf, GM ([1]; Normal hepatic function): 896.29 ng·h/mL | AUCinf, Mean ([1]; Normal hepatic function): 946.46 ng·h/mL | AUCinf, Median ([1]; Normal hepatic function): 932.27 ng·h/mL | AUClast, GM ([1]; Normal hepatic function): 867.85 ng·h/mL | AUClast, Mean ([1]; Normal hepatic function): 919.86 ng·h/mL | AUClast, Median ([1]; Normal hepatic function): 894.59 ng·h/mL | Cmax, GM ([1]; Normal hepatic function): 353.110 ng/mL | Cmax, Mean ([1]; Normal hepatic function): 419.750 ng/mL | Cmax, Median ([1]; Normal hepatic function): 513.000 ng/mL | T1/2, GM ([1]; Normal hepatic function): 18.220 h | T1/2, Mean ([1]; Normal hepatic function): 19.245 h | T1/2, Median ([1]; Normal hepatic function): 17.755 h | Tmax, Median ([1]; Normal hepatic function): 0.500 h | λz, GM ([1]; Normal hepatic function): 0.0400 h⁻¹ | λz, Mean ([1]; Normal hepatic function): 0.0402 h⁻¹ | λz, Median ([1]; Normal hepatic function): 0.0391 h⁻¹ | AUC0-24 h, GM ([1]; Severe hepatic impairment): 1977.74 ng·h/mL | AUC0-24 h, Mean ([1]; Severe hepatic impairment): 2295.22 ng·h/mL | AUC0-24 h, Median ([1]; Severe hepatic impairment): 1922.86 ng·h/mL | AUCinf, GM ([1]; Severe hepatic impairment): 2081.97 ng·h/mL | AUCinf, Mean ([1]; Severe hepatic impairment): 2467.86 ng·h/mL | AUCinf, Median ([1]; Severe hepatic impairment): 1959.93 ng·h/mL | AUClast, GM ([1]; Severe hepatic impairment): 2057.13 ng·h/mL | AUClast, Mean ([1]; Severe hepatic impairment): 2443.30 ng·h/mL | AUClast, Median ([1]; Severe hepatic impairment): 1951.71 ng·h/mL | Cmax, GM ([1]; Severe hepatic impairment): 901.010 ng/mL | Cmax, Mean ([1]; Severe hepatic impairment): 952.625 ng/mL | Cmax, Median ([1]; Severe hepatic impairment): 894.000 ng/mL | T1/2, GM ([1]; Severe hepatic impairment): 8.450 h | T1/2, Mean ([1]; Severe hepatic impairment): 10.103 h | T1/2, Median ([1]; Severe hepatic impairment): 8.542 h | Tmax, Median ([1]; Severe hepatic impairment): 0.500 h | λz, GM ([1]; Severe hepatic impairment): 0.0800 h⁻¹ | λz, Mean ([1]; Severe hepatic impairment): 0.0995 h⁻¹ | λz, Median ([1]; Severe hepatic impairment): 0.0882 h⁻¹ | time to primary peak of GM plasma concentrations ([1]; all groups): ≤ 1 h | time post dose until which concentrations remained above LLOQ in at least half of the subjects ([1]; mild hepatic impairment): 96 h | time post dose until which concentrations remained above LLOQ in at least half of the subjects ([1]; moderate hepatic impairment): 72 h | time post dose until which concentrations remained above LLOQ in at least half of the subjects ([1]; normal hepatic function): 96 h | time post dose until which concentrations remained above LLOQ in at least half of the subjects ([1]; severe hepatic impairment): 48 h | Maximum value of AUC0-24 h, severe hepatic impairment compared with control group ([1]; severe vs control group): ~ 5 fold | Maximum value of AUCinf, severe hepatic impairment compared with control group ([1]; severe vs control group): ~ 4 fold | Maximum value of AUClast, severe hepatic impairment compared with control group ([1]; severe vs control group): ~ 4 fold | Maximum value of Cmax, severe hepatic impairment compared with control group ([1]; severe vs control group): ~ 2 fold

C[C@]12CC[C@@H]3c4ccc(O)cc4CC[C@H]3[C@@H]1[C@@H](O)[C@@H](O)[C@@H]2O.O [E4 monoh.]
MENQOL Anxious or Nervous, Estimate vs Placebo (post-menopausal women; 15 mg): −0.6100 | MENQOL Being Impatient with Others, Estimate vs Placebo (post-menopausal women; 15 mg): −0.4911 | MENQOL Difficulty sleeping, Estimate vs Placebo (post-menopausal women; 15 mg): −0.7011 | MENQOL Dissatisfied Personal Life, Estimate vs Placebo (post-menopausal women; 15 mg): −0.8163 | MENQOL Physical Domain, Aching in muscles, Estimate vs Placebo (post-menopausal women; 15 mg): −0.1858 | MENQOL Psychosocial Domain Score, Estimate vs Placebo (post-menopausal women; 15 mg): −0.5211 | Total MENQOL Score, Estimate vs Placebo (post-menopausal women; 15 mg): −0.7068 | MENQOL Anxious or Nervous, Estimate vs Placebo (post-menopausal women; 20 mg): −0.8197 | MENQOL Being Impatient with Others, Estimate vs Placebo (post-menopausal women; 20 mg): −0.5656 | MENQOL Difficulty sleeping, Estimate vs Placebo (post-menopausal women; 20 mg): −0.7258 | MENQOL Dissatisfied Personal Life, Estimate vs Placebo (post-menopausal women; 20 mg): −1.2719 | MENQOL Physical Domain, Aching in muscles, Estimate vs Placebo (post-menopausal women; 20 mg): −0.5576 | MENQOL Psychosocial Domain Score, Estimate vs Placebo (post-menopausal women; 20 mg): −0.6056 | Total MENQOL Score, Estimate vs Placebo (post-menopausal women; 20 mg): −0.7155
